Here are results for one compound from patent US20250354223A1, “METHODS AND KITS FOR D[…] SUSCEPTIBILITY” (Siemens Healthcare Diagnostics Inc., priority 2022, published 2025).

Molecules are shown by their SMILES.

Type in all cases: cell-based
The subject of assay [1] is E. coli. Nature of the assay: PCR of extracted DNA with 16SrDNA specific primers, with vs without antibiotic (no EMA). The conditions noted are these: ampicillin-susceptible E. coli, 1×10^6 cells/mL, ampicillin 100 μg/mL, 37° C. The method, then:
(§1) Overnight E. coli culture that was susceptible to ampicillin was further sub-cultured for 2-3 hours to log phase. Cells in this culture were quantified using OD600nm values. The culture was diluted to 1×10^6 cells/mL and 10 mL was aliquoted into two, 50 ml conical flask. Ampicillin at 100 μg/mL was added to one of the conical flasks. The two flasks, with and without antibiotic were incubated at 37° C. and two, 50 μL aliquots were taken from each flask at regular intervals (0, 30, 40 and 60 mins). Nucleic acid (NA) was extracted from all sample aliquots using the VERSANT® brand Sample preparation 1.0 reagent kit. The NA samples were then subjected to PCR and RT-PCR (reverse transcription-PCR) using 16SrDNA specific primers (each DNA extracted sample was split into two replicates for PCR). […] In this experiment, all RNA samples were treated with DNAse for 60 min at 37° C. before RT-PCR. In a subsequent experiment it was shown that a treatment as low as 5 minutes was also sufficient to eliminate DNA from the sample.
Overnight E. coli culture that was susceptible to ampicillin was further sub-cultured for 2-3 hours to log phase. Cells in this culture was quantified using OD600nm values. The culture was diluted to 1×10^6 cells/mL and 10 mL was aliquoted into two, 50 ml conical flasks. Ampicillin at 100 μg/mL was added to one of the conical flasks. […]

Assay [2] deals with E. coli. In words: EMA (ethidium monoazide) + blue light treatment followed by PCR with 16SrDNA specific primers, with vs without antibiotic. Here is the method: FIG. 3 illustrates a method of determining antibiotic susceptibility of micro-organisms, according to yet another embodiment. At step 301, the sample comprising the micro-organism is received. At step 302, at least one first portion of the sample is incubated with an antibiotic and at least one second portion of the sample is incubated with no antibiotic. The micro-organisms in the sample are required to be grown/cultured or incubated for the shortest possible time in which discernible nucleic acid differences can be measured. For example, the micro-organisms are cultured or incubated for a range of at least one to five doubling cycles. Antibiotics which are cell wall synthesis inhibitors (beta lactam) and cell membrane inhibitors (colistin) affect the integrity of cell wall of the micro-organisms. This facilitates determination of antibiotic susceptibility. Once the doubling cycle range is met for the at least one first and second portion of the sample, at step 303, an intercalating dye is introduced to the at least one first portion of the sample and the at least one second portion of the sample. […]
Overnight E. coli culture that was susceptible to ampicillin was further sub-cultured for 2-3 hours to log phase. Cells in this culture was quantified using OD600nm values. […]

Assay [3] relates to E. coli. Nature of the assay: RT-PCR of extracted RNA with 16SrDNA specific primers, with vs without antibiotic. The conditions noted are these: ampicillin-susceptible E. coli, 1×10^6 cells/mL, ampicillin 100 μg/mL, 37° C., 60 minutes; FIG. 10 table 1. Here is the method: as §1

In the case of `CC1(C)S[C@@H]2[C@H](NC(=O)[C@H](N)c3ccccc3)C(=O)N2[C@H]1C(=O)O` [ampicillin], the “distinction of antibiotic and no antibiotic samples by DNA levels” value with E. coli [1] (60 min incubation, FIG. 10 table 2) is “did not distinguish antibiotic and no antibiotic samples”. The “difference in Ct between ampicillin exposed and unexposed, samples not exposed to EMA+blue light” value in the assay on E. coli [1] (up to 30 mins, no EMA, FIG. 14 table 2) was “did not show any difference”. Besides, the “effect of including EMA on the difference in cycle threshold values between first (ampicillin) and second (no ampicillin) portion” value in the assay with E. coli [2] (FIG. 4, graph 402 (ampicillin and EMA) vs graph 401 (ampicillin only)) is given as “improves the difference in the cycle threshold values”. Besides, in the assay on E. coli [2] (ampicillin-susceptible E. coli, 1×10^6 cells/mL, ampicillin 100 μg/mL, 37° C., within 30 minutes, EMA + blue LED light, FIG. 14 table 1), the “difference in Ct between ampicillin exposed and unexposed, samples exposed to EMA” value was “large difference in Ct”. For the same compound, in the assay with E. coli [3], the “detection of ampicillin susceptibility by RNA levels” value is given as “able to detect for ampicillin susceptibility at 60 minutes”.
